Data published in ChEMBL document CHEMBL5226284, “Small Molecule Inhibitors Targeting Biosynthesis of Ceramide, the Central Hub of the Sphingolipid Network” (J Med Chem, 2021).
pIC50, pKi: −log10 of the molar value.

Experiments:
[1] = target: T1, Sphingomyelin phosphodiesterase 2 (Rattus norvegicus) (UniProt Q9ET64); assay: Inhibition of rat brain microsomes nSMase at 100 uM relative to control; conditions: Microsome
T1 sequence (whole entry): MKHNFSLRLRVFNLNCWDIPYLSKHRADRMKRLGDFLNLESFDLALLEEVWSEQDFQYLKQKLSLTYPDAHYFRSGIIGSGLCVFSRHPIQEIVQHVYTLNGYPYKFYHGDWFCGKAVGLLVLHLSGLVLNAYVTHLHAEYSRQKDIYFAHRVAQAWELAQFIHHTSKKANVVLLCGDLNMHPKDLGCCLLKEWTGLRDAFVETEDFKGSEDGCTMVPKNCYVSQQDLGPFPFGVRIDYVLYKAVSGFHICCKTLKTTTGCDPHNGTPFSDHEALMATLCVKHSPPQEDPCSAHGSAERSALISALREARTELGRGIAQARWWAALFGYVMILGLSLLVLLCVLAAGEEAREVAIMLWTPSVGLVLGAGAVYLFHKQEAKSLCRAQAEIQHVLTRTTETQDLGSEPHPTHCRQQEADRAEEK

[2] = target: T2, Sphingomyelin phosphodiesterase 2 (Rattus norvegicus, UniProt Q9ET64); assay: Inhibition of rat brain microsomes nSMase; parameters: species or system Microsome
T2 sequence (Q9ET64 whole entry): T1 sequence (whole entry)

[3] = target: T3, Sphingomyelin phosphodiesterase 2 (Mus musculus, UniProt O70572); assay: Inhibition of mouse nSMase
T3 sequence (O70572 whole entry): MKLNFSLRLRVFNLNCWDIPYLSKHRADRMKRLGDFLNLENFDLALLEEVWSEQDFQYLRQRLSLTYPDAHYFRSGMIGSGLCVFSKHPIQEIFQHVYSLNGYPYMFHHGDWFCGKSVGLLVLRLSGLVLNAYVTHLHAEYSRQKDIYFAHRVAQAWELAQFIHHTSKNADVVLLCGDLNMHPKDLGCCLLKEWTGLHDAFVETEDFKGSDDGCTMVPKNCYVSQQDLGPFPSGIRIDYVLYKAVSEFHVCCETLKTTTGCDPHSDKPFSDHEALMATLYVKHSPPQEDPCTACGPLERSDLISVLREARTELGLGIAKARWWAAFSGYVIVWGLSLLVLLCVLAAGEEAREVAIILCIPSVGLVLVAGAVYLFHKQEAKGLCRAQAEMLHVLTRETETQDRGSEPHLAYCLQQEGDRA

[4] = Inhibition of rat brain aSMase using HMU-PC as substrate incubated for 3 hrs by fluorescence based analysis; format: tissue-based
[5] = system: Neutral sphingomyelinase (Sus scrofa); assay: Inhibition of pig liver plasma membranes nSMase at 100 uM measured after 15 mins at 100 uM relative to control; conditions: Plasma membrane
[6] = Inhibition of rat brain aSMase using HMU-PC as substrate incubated for 3 hrs by fluorescence plate reader assay; format: tissue-based
[7] = target: T4, Ceramide synthase 1 (Homo sapiens) (UniProt P27544); assay: Inhibition of CerS1 (unknown origin) at 10 uM relative to control
T4 sequence (whole entry): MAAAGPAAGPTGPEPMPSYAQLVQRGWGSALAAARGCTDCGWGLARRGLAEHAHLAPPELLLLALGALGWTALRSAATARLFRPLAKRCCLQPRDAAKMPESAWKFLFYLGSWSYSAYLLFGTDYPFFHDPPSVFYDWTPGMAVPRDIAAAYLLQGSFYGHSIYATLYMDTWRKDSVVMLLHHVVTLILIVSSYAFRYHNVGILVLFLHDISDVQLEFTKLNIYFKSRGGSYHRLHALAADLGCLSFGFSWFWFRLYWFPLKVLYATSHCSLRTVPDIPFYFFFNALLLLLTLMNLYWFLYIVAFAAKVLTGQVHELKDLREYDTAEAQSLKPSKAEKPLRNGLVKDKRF

[8] = species on record: Bos taurus; assay: Inhibition of bovine brain microsomes nSMase measured after 60 mins relative to control; conditions: Microsome
[9] = target: T1, Sphingomyelin phosphodiesterase 2 (Rattus norvegicus); assay: Inhibition of rat brain microsomes nSMase at 350 uM measured after 15 mins relative to control; conditions: Microsome
[10] = target: T1, Sphingomyelin phosphodiesterase 2 (Rattus norvegicus); assay: Inhibition of rat brain microsomes nSMase at 200 uM measured after 90 mins relative to control; conditions: Microsome
[11] = target: Sphingomyelin phosphodiesterase 2 (Mus musculus) (UniProt O70572); assay: Inhibition of nSMase in mouse Splenocyte at 1 uM relative to control; format: cell-based
[12] = target: T5, Sphingolipid delta(4)-desaturase DES1 (Homo sapiens, UniProt O15121); assay: Inhibition of DES1 in human HGC-27 cell lysates; format: subcellular
T5 sequence (O15121 whole entry): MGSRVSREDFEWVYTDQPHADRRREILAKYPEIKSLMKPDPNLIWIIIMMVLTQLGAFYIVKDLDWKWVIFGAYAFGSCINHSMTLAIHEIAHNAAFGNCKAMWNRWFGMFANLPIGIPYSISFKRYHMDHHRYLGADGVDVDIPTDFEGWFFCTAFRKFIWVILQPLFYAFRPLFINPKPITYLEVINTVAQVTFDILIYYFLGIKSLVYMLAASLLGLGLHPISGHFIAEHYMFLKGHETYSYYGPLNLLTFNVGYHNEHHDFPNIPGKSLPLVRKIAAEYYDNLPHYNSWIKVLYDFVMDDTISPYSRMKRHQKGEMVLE

[13] = Inhibition of bovine brain microsomes nSMase assessed as inhibition constant; parameters: species or system Bos taurus, Microsome
[14] = Inhibition of CerS human HCT-116 cells microsomal fraction assessed as reduction in C16 dihydroceramide synthesis by LC-MS/MS analysis; format: microsomes, Microsome
[15] = Inhibition of CerS human HCT-116 cells microsomal fraction assessed as reduction in C24 dihydroceramide synthesis by LC-MS/MS analysis; format: microsomes, Microsome
[16] = Inhibition of CerS human HCT-116 cells microsomal fraction assessed as reduction in C18 dihydroceramide synthesis by LC-MS/MS analysis; format: microsomes, Microsome
[17] = target: T6, Sphingomyelinase C (Bacillus cereus, UniProt P11889); assay: Inhibition of Bacillus cereus SMaseC
T6 sequence (P11889 whole entry): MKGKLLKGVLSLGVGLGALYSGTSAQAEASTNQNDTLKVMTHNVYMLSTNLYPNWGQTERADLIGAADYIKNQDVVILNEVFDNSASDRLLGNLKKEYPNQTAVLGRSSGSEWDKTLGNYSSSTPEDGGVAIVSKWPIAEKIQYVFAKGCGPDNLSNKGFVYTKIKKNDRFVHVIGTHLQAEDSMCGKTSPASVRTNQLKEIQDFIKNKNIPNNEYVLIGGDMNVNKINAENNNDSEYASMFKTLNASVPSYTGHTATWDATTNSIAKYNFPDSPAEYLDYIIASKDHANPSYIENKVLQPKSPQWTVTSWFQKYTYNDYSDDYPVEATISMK

For `COc1c(O)c(C)c(C/C=C(\C)CC/C=C(\C)CC/C=C(\C)CC/C=C(\C)CC/C=C(\C)CCC=C(C)C)c(O)c1OC`, which inhibition [1] is on record?
Its inhibition is greater than 90%.

With `CC(C)(O)C(O)Cc1cc(O)ccc1O` (configuration not stated) as the molecule, how does the pIC50 [2] read?
The pIC50 was 4.47.

With `CCN(CC)c1ccc(C2NC(=S)NC(C)=C2C(=O)Nc2ccccc2OC)cc1` (configuration not stated) as the molecule, how does the pIC50 [3] read?
The pIC50 was 6.05.

With `CCCCCCOS(=O)(=O)O[C@@H]1[C@H](O)[C@H](OP(=O)(O)O)[C@@H](O)[C@H](OP(=O)(O)O)[C@H]1O` as the molecule, how does the pIC50 [4] read?
The pIC50 was 4.37.

For `COc1c(O)c(C)c(C/C=C(\C)CC/C=C(\C)CC/C=C(\C)CC/C=C(\C)CC/C=C(\C)CC/C=C(\C)CC/C=C(\C)CC/C=C(\C)CC/C=C(\C)CCC=C(C)C)c(O)c1OC`, which inhibition [5] is on record?
Its inhibition is greater than 90%.

With `CCCCCCCC(N)(P(=O)(O)O)P(=O)(O)O` as the molecule, how does the pIC50 [6] read?
Its pIC50 is 7.40.

For `C[C@@](N)(CO)CCc1ccc(OCc2ccccc2)cc1`, which inhibition [7] is on record?
The inhibition was 76%.

What does the source list for `C/C=C/C=C/C(=O)N[C@@H](CO)[C@H]1C=C(CCCCCC)C(=O)O1`?
inhibition [8]: 90%; inhibition [9]: 50%

For `CCCCCCCCCC(=O)N[C@H](C)C(=O)NC1=CC2(CO2)C(=O)C=C1` (some centres not stated), which inhibition [10] is on record?
The inhibition was 33%.

With `N=C(N)N/N=C/c1cc2ccccc2[nH]1` as the molecule, how does the pIC50 [2] read?
The pIC50 was 5.30.

With `COS(=O)(=O)O[C@@H]1[C@H](O)[C@H](OP(=O)(O)O)[C@@H](O)[C@H](OP(=O)(O)O)[C@H]1O` as the molecule, how does the pIC50 [4] read?
Its pIC50 is less than 4.00.

For `N=C(N)N/N=C/c1ccc(Oc2cccc(OCc3ccccc3)c2)cc1`, which inhibition [11] is on record?
The inhibition was 80%.

With `CCCCCCCCOS(=O)(=O)O[C@@H]1[C@H](O)[C@H](OP(=O)(O)O)[C@@H](O)[C@H](OP(=O)(O)O)[C@H]1O` as the molecule, how does the pIC50 [4] read?
The pIC50 was 5.40.

With `CCCCCCCCCCC/C=C/CC[C@@H](O)[C@H](CO)NC(=O)CCCCCCC` as the molecule, how does the pIC50 [12] read?
Its pIC50 is 6.81.

With `CCCCCCCCC/C=N/NC(=N)N` as the molecule, how does the pIC50 [2] read?
The pIC50 was 5.09.

With `CCCCCCCCCC(O)(P(=O)(O)O)P(=O)(O)O` as the molecule, how does the pIC50 [6] read?
The pIC50 was 7.10.

With `CCCCCCCCCCCCNC(=S)N[C@H](CO)[C@H](O)c1ccc([N+](=O)[O-])cc1` as the molecule, how does the pKi [13] read?
The pKi was 5.77.

With `CCCCCCCCc1ccc(CCC(CO)(CO)NCC)cc1` as the molecule, how does the pIC50 [14] read?
The pIC50 was 4.59.

What about the pIC50 [15] of the same molecule?
Its pIC50 is 4.22.

And the pIC50 [16]?
The pIC50 was 4.29.

With `CCCCCCCCCC(N)(P(=O)(O)O)P(=O)(O)O` as the molecule, how does the pIC50 [6] read?
Its pIC50 is 7.70.

With `CCCCCCC[C@@H](O)[C@H](CCCP(=O)([O-])OCC[N+](C)(C)C)NC(=O)CCCCC` as the molecule, how does the pIC50 [17] read?
The pIC50 was 4.11.

With `COC(C)(C)/C=C/c1cc(O)ccc1O` as the molecule, how does the pIC50 [2] read?
The pIC50 was 4.80.

With `CCOS(=O)(=O)O[C@@H]1[C@H](O)[C@H](OP(=O)(O)O)[C@@H](O)[C@H](OP(=O)(O)O)[C@H]1O` as the molecule, how does the pIC50 [4] read?
The pIC50 was less than 4.00.

With `S=c1[nH]nc(Nc2ccc(Cl)cc2)n1-c1ccc(Cl)cc1` as the molecule, how does the pIC50 [3] read?
The pIC50 was 5.62.

With `CCCCCCCCCCCC(O)(P(=O)(O)O)P(=O)(O)O` as the molecule, how does the pIC50 [6] read?
Its pIC50 is 7.15.
